Reference: patent publication US20170349593A1, “BTK INHIBITORS” (MERCK SHARP & DOHME CORP., priority 2014, published 2017)

Tests used:
[1] = molecular target: T1, BTK enzyme (recombinant full-length BTK, hBTK) (Homo sapiens, UniProt Q06187); experiment: Btk enzyme activity assay (LANCE TR-FRET); type: biochemical; settings: 50 pM hBTK, 25 μM ATP, 60 minute compound and enzyme incubation, concentration range 1 μM to 0.017 nM, read-out: BTK binding IC50
T1 construct: recombinant protein from baculovirus-transfected S 19 cells: full-length BTK, 6 HIS-tag cleaved; 6 HIS-tag (cleaved yes); made in house

[2] = test system: adenosine uptake into HeLa cells; experiment: [3H]Adenosine uptake assay; type: cell-based; settings: Homo sapiens; accumulation of [3H]adenosine into HeLa cells; concentration range 10 μM to 0.032 nM; read-out: ADU inhibition IC50
In short: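 HeLa cells (25 000/well), plated overnight, were preincubated 30 minutes at ambient temperature with compound in HBSS + 5% FBS. Ten-point titrations ran from 10 μM to 0.032 nM final. [3H]adenosine was added from a 500 nM solution for 60 minutes, and uptake was measured by scintillation proximity counting; IC50 came from a 4-parameter fit.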

T1 sequence (Q06187 whole entry): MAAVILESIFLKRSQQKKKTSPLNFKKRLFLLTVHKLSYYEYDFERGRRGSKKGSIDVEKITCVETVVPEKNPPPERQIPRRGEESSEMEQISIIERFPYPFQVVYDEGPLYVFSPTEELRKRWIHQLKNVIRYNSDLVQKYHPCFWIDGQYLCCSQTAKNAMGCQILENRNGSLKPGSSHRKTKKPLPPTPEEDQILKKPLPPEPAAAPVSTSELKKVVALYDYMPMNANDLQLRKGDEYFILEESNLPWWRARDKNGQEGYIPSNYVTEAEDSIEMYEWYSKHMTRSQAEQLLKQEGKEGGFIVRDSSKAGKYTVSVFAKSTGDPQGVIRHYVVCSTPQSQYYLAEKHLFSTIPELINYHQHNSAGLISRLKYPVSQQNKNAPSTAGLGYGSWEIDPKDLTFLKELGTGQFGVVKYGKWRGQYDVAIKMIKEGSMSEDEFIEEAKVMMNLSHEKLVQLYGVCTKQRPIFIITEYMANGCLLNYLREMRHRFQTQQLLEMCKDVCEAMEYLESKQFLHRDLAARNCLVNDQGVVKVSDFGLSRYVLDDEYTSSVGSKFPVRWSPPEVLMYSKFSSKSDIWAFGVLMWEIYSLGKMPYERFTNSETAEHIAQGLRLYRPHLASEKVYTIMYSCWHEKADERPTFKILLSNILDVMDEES

Compound	IC50 [1]	IC50 [2]
CCOc1cc(C(=O)Nc2cc(C(F)(F)F)ccn2)ccc1-c1nc([C@H]2CN(C(=O)[C@H](C)O)[C@@H](C)CO2)n2ccnc(N)c12 [Example 98, 4-(8-amino-3-{(2R,5S)-4-[(2S)-2-hydroxypropanoyl]-5-methylmorpholin-2-yl}imidazo[1,5-a]pyrazin-1-yl)-3-ethoxy-N-[4-(trifluoromethyl)pyridin-2-yl]benzamide]	1.74 nM	1610 nM
CCOc1cc(C(=O)Nc2cc(C(F)(F)F)ccn2)ccc1-c1nc([C@H]2CN(C(=O)[C@H](C)O)[C@@H](C)CO2)n2c(CC)cnc(N)c12 [Example 99, 4-(8-amino-5-ethyl-3-{(2R,5S)-4-[(2S)-2-hydroxypropanoyl]-5-methylmorpholin-2-yl}imidazo[1,5-a]pyrazin-1-yl)-3-ethoxy-N-[4-(trifluoromethyl)pyridin-2-yl]benzamide]	0.788 nM	1990 nM
CCOc1cc(C(=O)Nc2cc(C(F)(F)F)ccn2)ccc1-c1nc([C@H]2CN(C(=O)C3CC3(F)F)[C@@H](C)CO2)n2c(Cl)cnc(N)c12 (stereo partly drawn) [Example 102, 4-(8-amino-5-chloro-3-{(2R,5S)-4-[(2,2-difluorocyclopropyl)carbonyl]-5-methylmorpholin-2-yl}imidazo[1,5-a]pyrazin-1-yl)-3-ethoxy-N-[4-(trifluoromethyl)pyridin-2-yl]benzamide]	3.12 nM	5930 nM
CCOc1cc(C(=O)Nc2cc(C(F)(F)F)ccn2)ccc1-c1nc([C@H]2CN(C(=O)C3(C#N)CC3)[C@@H](C)CO2)n2c(Cl)cnc(N)c12 [Example 103, 4-(8-amino-5-chloro-3-{(2R,5S)-4-[(1-cyanocyclopropyl)carbonyl]-5-methylmorpholin-2-yl}imidazo[1,5-a]pyrazin-1-yl)-3-ethoxy-N-[4-(trifluoromethyl)pyridin-2-yl]benzamide]	1.92 nM	5580 nM
CCOc1cc(C(=O)Nc2cc(C(F)(F)F)ccn2)ccc1-c1nc([C@H]2CN(C(=O)CCOC)[C@@H](C)CO2)n2c(Cl)cnc(N)c12 [Example 104, 4-{8-amino-5-chloro-3-[(2R,5S)-4-(3-methoxypropanoyl)-5-methylmorpholin-2-yl]imidazo[1,5-a]pyrazin-1-yl}-3-ethoxy-N-[4-(trifluoromethyl)pyridin-2-yl]benzamide]	1.33 nM	6150 nM
CCOc1cc(C(=O)Nc2cc(C(F)(F)F)ccn2)c(F)cc1-c1nc([C@H]2CN(C(=O)C3CC3)[C@@H](C)CO2)n2c(Cl)cnc(N)c12 [Example 105, 4-{8-amino-5-chloro-3-[(2R,5S)-4-(cyclopropylcarbonyl)-5-methylmorpholin-2-yl]imidazo[1,5-a]pyrazin-1-yl}-5-ethoxy-2-fluoro-N-[4-(trifluoromethyl)pyridin-2-yl]benzamide]	2.52 nM	5160 nM
CCOc1cc(C(=O)Nc2cc(C(F)(F)F)ccn2)ccc1-c1nc([C@H]2CN(C(=O)[C@H](C)O)[C@@H](C)CO2)n2c(F)cnc(N)c12 [Example 106, 4-(8-amino-5-fluoro-3-{(2R,5S)-4-[(2S)-2-hydroxypropanoyl]-5-methylmorpholin-2-yl}imidazo[1,5-a]pyrazin-1-yl)-3-ethoxy-N-[4-(trifluoromethyl)pyridin-2-yl]benzamide]	4.31 nM	6250 nM
CCOc1cc(C(=O)Nc2cc(C(F)(F)F)ccn2)ccc1-c1nc([C@H]2CN(C3CCS(=O)(=O)CC3)[C@@H](C)CO2)n2c(Cl)cnc(N)c12 [Example 108, 4-{8-amino-5-chloro-3-[(2R,5S)-4-(1,1-dioxidotetrahydro-2H-thiopyran-4-yl)-5-methylmorpholin-2-yl]imidazo[1,5-a]pyrazin-1-yl}-3-ethoxy-N-[4-(trifluoromethyl)pyridin-2-yl]benzamide]	1.8 nM	1320 nM

Now those with a lower IC50 [1], led by results:

IC50 [1]	IC50 [2]	Compound
0.65 nM	663 nM	C[C@H](O)C(=O)N1C[C@H](c2nc(-c3ccc(C(=O)Nc4cc(C(F)(F)F)ccn4)cc3Cl)c3c(N)ncc(Cl)n23)OC[C@@H]1C [Example 100, 4-(8-amino-5-chloro-3-{(2R,5S)-4-[(2S)-2-hydroxypropanoyl]-5-methylmorpholin-2-yl}imidazo[1,5-a]pyrazin-1-yl)-3-chloro-N-[4-(trifluoromethyl)pyridin-2-yl]benzamide]
0.665 nM	2720 nM	CCOc1cc(C(=O)Nc2cc(C(F)(F)F)ccn2)cc(F)c1-c1nc([C@H]2CN(C(=O)[C@H](C)O)[C@@H](C)CO2)n2c(Cl)cnc(N)c12 [Example 101, 4-(8-amino-5-chloro-3-{(2R,5S)-4-[(2S)-2-hydroxypropanoyl]-5-methylmorpholin-2-yl}imidazo[1,5-a]pyrazin-1-yl)-3-ethoxy-5-fluoro-N-[4-(trifluoromethyl)pyridin-2-yl]benzamide]
0.479 nM	1990 nM	CCOc1cc(C(=O)Nc2cc(C(F)(F)F)ccn2)cc(F)c1-c1nc([C@H]2CN(C(=O)[C@@H](C)O)[C@@H](C)CO2)n2c(Cl)cnc(N)c12 [Example 107, 4-(8-amino-5-chloro-3-{(2R,5S)-4-[(2R)-2-hydroxypropanoyl]-5-methylmorpholin-2-yl}imidazo[1,5-a]pyrazin-1-yl)-3-ethoxy-5-fluoro-N-[4-(trifluoromethyl)pyridin-2-yl]benzamide]
0.403 nM	3340 nM	CCOc1cc(C(=O)Nc2cc(C(F)(F)F)n(C)n2)ccc1-c1nc([C@@H]2CC[C@H](C)N(C(=O)[C@@H](C)O)C2)n2ccnc(N)c12 [Example 109, 4-(8-amino-3-{(3R,6S)-1-[(2R)-2-hydroxypropanoyl]-6-methylpiperidin-3-yl}imidazo[1,5-a]pyrazin-1-yl)-3-ethoxy-N-[1-methyl-5-(trifluoromethyl)-1H-pyrazol-3-yl]benzamide]
0.674 nM	533 nM	CCc1cnc(N)c2c(-c3ccc(C(=O)Nc4cc(C(F)(F)F)ccn4)cc3F)nc([C@H]3CN(C(=O)C4CC4)[C@@H](C)CO3)n12 [Example 110, 4-{8-amino-3-[(2R,5S)-4-(cyclopropylcarbonyl)-5-methylmorpholin-2-yl]-5-ethylimidazo[1,5-a]pyrazin-1-yl}-3-fluoro-N-[4-(trifluoromethyl)pyridin-2-yl]benzamide]
0.274 nM	982 nM	CCOc1cc(C(=O)Nc2cc(C(F)(F)F)ccn2)ccc1-c1nc([C@@H]2CC[C@H](C)N(C(=O)[C@@H](C)O)C2)n2c(Cl)cnc(N)c12 [Example 111, 4-(8-amino-5-chloro-3-{(3R,6S)-1-[(2R)-2-hydroxypropanoyl]-6-methylpiperidin-3-yl}imidazo[1,5-a]pyrazin-1-yl)-3-ethoxy-N-[4-(trifluoromethyl)pyridin-2-yl]benzamide]
0.254 nM	2270 nM	Nc1c(N[C@H]2C[C@H](c3nc(-c4ccc(C(=O)Nc5cc(C(F)(F)F)ccn5)cc4)c4c(N)nccn43)C2)c(=O)c1=O [Example 112, 4-(8-amino-3-{trans-3-[(2-amino-3,4-dioxocyclobut-1-en-1-yl)amino]cyclobutyl}imidazo[1,5-a]pyrazin-1-yl)-N-[4-(trifluoromethyl)pyridin-2-yl]benzamide]
0.166 nM	2940 nM	CNc1c(N[C@H]2C[C@H](c3nc(-c4ccc(C(=O)Nc5cc(C(F)(F)F)ccn5)cc4)c4c(N)nccn43)C2)c(=O)c1=O [Example 113, 4-[8-amino-3-(trans-3-{[2-(methylamino)-3,4-dioxocyclobut-1-en-1-yl]amino}cyclobutyl)imidazo[1,5-a]pyrazin-1-yl]-N-[4-(trifluoromethyl)pyridin-2-yl]benzamide]
0.327 nM	925 nM	Nc1nccn2c1c(-c1ccc(C(=O)Nc3cc(C(F)(F)F)ccn3)cc1)nc2[C@H]1C[C@H](Nc2c(NC3CC3)c(=O)c2=O)C1 [Example 114, 4-[8-amino-3-(trans-3-{[2-(cyclopropylamino)-3,4-dioxocyclobut-1-en-1-yl]amino}cyclobutyl)imidazo[1,5-a]pyrazin-1-yl]-N-[4-(trifluoromethyl)pyridin-2-yl]benzamide]
